Results as given in patent US9833497B2, “Human originated EGF domain proteins and use of the same” (CHENGDU SOURCEBIO LIMITED-LIABILITY COMPANY, priority 2013, dated 2017).

Tests used:
Assay type in all cases: cell-based
E. coli DH5α = test: Antibacterial activity: MIC and growth curve against E. coli DH5α in 96-well plate; details: minimal inhibitory concentration against E. coli DH5α; 96-well plate, 5×10^5 CFU/mL, 37° C., judged after 8 h
Summary of the method: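 MIC taken as lowest protein level with no bacterial growth, tracked by A600 every 30 min during 37 °C, 175 rpm culture. Two-fold protein series 50-12.5 μg/mL final, triplicate wells, against 5×10^5 CFU/mL of LB-washed mid-log cells.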

Moraxella catarrhalis = test: MIC against Gram-negative bacteria: Moraxella catarrhalis; details: 10 h cultivation at 37° C., 5×10^5 CFU/mL; for MIC / MIC (μg/mL) M. catarrhalis: M. catarrhalis
Summary of the method: (§1)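 LB broth cultures at McFarland 0.5, spun down, resuspended, diluted to 5×10^5 CFU/mL final. Two-fold serial dilutions of purified human EGF domain proteins, triplicate. 37° C, 175 rpm shaking. Endpoint: no visible growth.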

Pseudomonas aeruginosa = test: MIC against Gram-negative bacteria: Pseudomonas aeruginosa; details: 10 h cultivation at 37° C., 5×10^5 CFU/mL; for MIC / MIC (μg/mL) P. aeruginosa: P. aeruginosa
Summary of the method: as §1

Serratia marcescens = test: MIC against Gram-negative bacteria: Serratia marcescens; details: 10 h cultivation at 37° C., 5×10^5 CFU/mL; for MIC / MIC (μg/mL) S. marcescens: S. marcescens
Summary of the method: as §1

Proteus vulgaris = test: MIC against Gram-negative bacteria: Proteus vulgaris; details: 10 h cultivation at 37° C., 5×10^5 CFU/mL; for MIC / MIC (μg/mL) P. vulgaris: P. vulgaris
Summary of the method: as §1

Aeromonas hydrophila = test: MIC against Gram-negative bacteria: Aeromonas hydrophila; details: 10 h cultivation at 37° C., 5×10^5 CFU/mL; for MIC / MIC (μg/mL) A. hydrophila: A. hydrophila
Summary of the method: as §1

E. coli BL21 = test: MIC against Gram-negative bacteria: E. coli BL21; details: 10 h cultivation at 37° C., 5×10^5 CFU/mL
Summary of the method: as §1

Klebsiella pneumonia = test: MIC against Gram-negative bacteria: Klebsiella pneumonia; details: 10 h cultivation at 37° C., 5×10^5 CFU/mL; for MIC / MIC (μg/mL) K. pneumonia: K. pneumonia
Summary of the method: as §1

Enterobacter cloacae = test: MIC against Gram-negative bacteria: Enterobacter cloacae; details: 10 h cultivation at 37° C., 5×10^5 CFU/mL; for MIC / MIC (μg/mL) E. cloacae: E. cloacae
Summary of the method: as §1

Citrobacter diversus = test: MIC against Gram-negative bacteria: Citrobacter diversus; details: 10 h cultivation at 37° C., 5×10^5 CFU/mL; for MIC / MIC (μg/mL) C. diversus: C. diversus
Summary of the method: as §1

Proteus mirabilis = test: MIC against Gram-negative bacteria: Proteus mirabilis; details: 10 h cultivation at 37° C., 5×10^5 CFU/mL; for MIC / MIC (μg/mL) P. mirabilis: P. mirabilis
Summary of the method: as §1

Substance	MIC (E. coli DH5α) [µg/mL]	MIC (Moraxella catarrhalis) [µg/mL]	MIC (Pseudomonas aeruginosa) [µg/mL]	MIC (Serratia marcescens) [µg/mL]	MIC (Proteus vulgaris) [µg/mL]	MIC (Aeromonas hydrophila) [µg/mL]	MIC (E. coli BL21; E. coli BL21) [µg/mL]	MIC (Klebsiella pneumonia) [µg/mL]	MIC (Enterobacter cloacae) [µg/mL]	MIC (Citrobacter diversus) [µg/mL]	MIC (Proteus mirabilis) [µg/mL]	MIC (μg/mL) M. catarrhalis (Moraxella catarrhalis) [µg/mL]	MIC (μg/mL) P. aeruginosa (Pseudomonas aeruginosa) [µg/mL]	MIC (μg/mL) S. marcescens (Serratia marcescens) [µg/mL]	MIC (μg/mL) P. vulgaris (Proteus vulgaris) [µg/mL]	MIC (μg/mL) A. hydrophila (Aeromonas hydrophila) [µg/mL]	MIC (μg/mL) E. coli BL21 (E. coli BL21; E. coli BL21) [µg/mL]	MIC (μg/mL) K. pneumonia (Klebsiella pneumonia) [µg/mL]	MIC (μg/mL) E. cloacae (Enterobacter cloacae) [µg/mL]	MIC (μg/mL) C. diversus (Citrobacter diversus) [µg/mL]	also measured
PRT430 (DIDECAQGAGILCTFRCLNVPGSYQCACPEQGYTMTANGRSCK; listed as Homo sapiens)	12.5	25	50	12.5	50	25	25	25	12.5	50	12.5										
PRT817 (FGPGCEQRCQCQHGAACDHVSGACTCPAGWRGTFCE; listed as Homo sapiens)	50											25	50	12.5	50	25	12.5	25	12.5	50	MIC (μg/mL) P. mirabilis (Proteus mirabilis): 12.5 µg/mL
PRT748 (YTASCQPWSCSGHGECVEIINNYTCNCDVGYYGPQCQ; listed as Homo sapiens)	50											12.5	12.5	25	12.5	12.5	25	25	50	50	MIC (μg/mL) P. mirabilis (Proteus mirabilis): 50 µg/mL
PRT1077 (RSHACENDQYGKPGGCSDICLLANSHKARTCRCRSGFSLGSDGKSCK; listed as Homo sapiens)	12.5																				MIC M. catarrhalis (Moraxella catarrhalis; two-fold serial dilution): 25 µg/mL; MIC P. aeruginosa (Pseudomonas aeruginosa; two-fold serial dilution): 12.5 µg/mL; MIC S. marcescens (Serratia marcescens; two-fold serial dilution): 12.5 µg/mL; MIC P. vulgaris (Proteus vulgaris; two-fold serial dilution): 50 µg/mL; MIC A. hydrophila (Aeromonas hydrophila; two-fold serial dilution): 25 µg/mL; MIC E. coli BL21 (E. coli BL21; two-fold serial dilution): 12.5 µg/mL; MIC K. pneumonia (Klebsiella pneumonia; two-fold serial dilution): 50 µg/mL; MIC E. cloacae (Enterobacter cloacae; two-fold serial dilution): 25 µg/mL; MIC C. diversus (Citrobacter diversus; two-fold serial dilution): 25 µg/mL; MIC P. mirabilis (Proteus mirabilis; two-fold serial dilution): 25 µg/mL
PRT434 (DVNECATENPCVQTCVNTYGSFICRCDPGYELEEDGVHCS; listed as Homo sapiens)	12.5	50	12.5	25	12.5	50	50	50	12.5	12.5	25										
PRT1457 (CQCHGHADNCDTTSQPYRCLCSQESFTEGLHCDRCLPLYNDKPFRQGDQVYAFNCKP; listed as Homo sapiens)	12.5																				MIC against M. catarrhalis (Moraxella catarrhalis; Moraxella catarrhalis): 12.5 µg/mL; MIC against P. aeruginosa (Pseudomonas aeruginosa; Pseudomonas aeruginosa): 12.5 µg/mL; MIC against S. marcescens (Serratia marcescens; Serratia marcescens): 25 µg/mL; MIC against P. vulgaris (Proteus vulgaris; Proteus vulgaris): 12.5 µg/mL; MIC against A. hydrophila (Aeromonas hydrophila; Aeromonas hydrophila): 12.5 µg/mL; MIC against E. coli BL21 (E. coli BL21; E. coli BL21): 25 µg/mL; MIC against K. pneumonia (Klebsiella pneumonia; Klebsiella pneumonia): 100 µg/mL; MIC against E. cloacae (Enterobacter cloacae; Enterobacter cloacae): 12.5 µg/mL; MIC against C. diversus (Citrobacter diversus; Citrobacter diversus): 12.5 µg/mL; MIC against P. mirabilis (Proteus mirabilis; Proteus mirabilis): 25 µg/mL
